In paper PMC8694143 (Microbiology Spectrum, 2021):
No end group written: not given here.

Assays:
[1] = tested on: MRSA ATCC 33592; assay: MIC determination in broth; assay type: cell-based, Staphylococcus aureus; conditions: cation-adjusted MH broth, ~10^5 CFU/mL, 37°C, 16 h
How it was run: (§1)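 Peptides from the initial screen are tested as 2-fold dilution series against an inoculum of about 10^5 CFU/mL in cation-adjusted Mueller-Hinton medium, incubated at 37°C without agitation.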

[2] = tested on: MRSA ATCC BAA-1683; assay: MIC determination in broth; assay type: cell-based, Staphylococcus aureus; conditions: STIP3 variants, highest conc. tested 100 μg/mL; cation-adjusted MH broth, ~10^5 CFU/mL, 2-fold dilution series, 37°C, 16 h
How it was run: as §1

[3] = tested on: MRSA ATCC BAA-2094; assay: MIC determination in broth; assay type: cell-based, Staphylococcus aureus; conditions: STIP3 variants, highest conc. tested 100 μg/mL; cation-adjusted MH broth, ~10^5 CFU/mL, 2-fold dilution series, 37°C, 16 h
How it was run: as §1

[4] = tested on: MRSA ATCC BAA-2313; assay: MIC determination in broth; assay type: cell-based, Staphylococcus aureus; conditions: STIP3 variants, highest conc. tested 100 μg/mL; cation-adjusted MH broth, ~10^5 CFU/mL, 2-fold dilution series, 37°C, 16 h
How it was run: as §1

[5] = tested on: MRSA ATCC BAA-41; assay: MIC determination in broth; assay type: cell-based, Staphylococcus aureus; conditions: STIP3 variants, highest conc. tested 100 μg/mL; cation-adjusted MH broth, ~10^5 CFU/mL, 2-fold dilution series, 37°C, 16 h
How it was run: as §1

[6] = tested on: MRSA ATCC BAA-42; assay: MIC determination in broth; assay type: cell-based, Staphylococcus aureus; conditions: STIP3 variants, highest conc. tested 100 μg/mL; cation-adjusted MH broth, ~10^5 CFU/mL, 2-fold dilution series, 37°C, 16 h
How it was run: as §1

[7] = tested on: MRSA ATCC BAA-44; assay: MIC determination in broth; assay type: cell-based, Staphylococcus aureus; conditions: STIP3 variants, highest conc. tested 100 μg/mL; cation-adjusted MH broth, ~10^5 CFU/mL, 2-fold dilution series, 37°C, 16 h
How it was run: as §1

[8] = tested on: S. aureus ATCC 29213; assay: MIC determination in broth; assay type: cell-based, Staphylococcus aureus; conditions: STIP3 variants, highest conc. tested 100 μg/mL; cation-adjusted MH broth, ~10^5 CFU/mL, 2-fold dilution series, 37°C, 16 h
How it was run: as §1

[9] = tested on: sheep red blood cells; assay: Hemolytic activity assay; assay type: cell-based; conditions: peptides at 100 μg/mL, 1 h, relative to the δ-toxin and other STIPs
Protocol: Thirty-five percent defibrinated sheep’s blood (vol/vol) was centrifuged for 5 min at 4,000 rpm to harvest red blood cells. The cells were washed three times with PBS and harvested by centrifugation prior to dilution to 15% (vol/vol) in PBS in order to evaluate peptide-mediated hemolysis. The assay was performed in 96-well microtiter plates using peptides at 100 μg/mL in a 200-μL volume. […] was used as a negative control and Triton X-100 (0.1% vol/vol) was used as a positive control for complete lysis. After 1 h of incubation, the 96-well microtiter plates were centrifuged at 4,500 rpm for 10 min and a 150 μL aliquot of the supernatant from each sample was carefully transferred to a new 96-well plate. The absorbance of the supernatant was then measured at 540 nm using a Varioskan Lux plate reader (Thermo Scientific). The hemolytic activity is reported relative to complete lysis (%) obtained using Triton X-100. Experiments were performed in triplicate, and statistical differences in hemolysis were measured using an unpaired two-tailed Student’s t test to compare the STIPs and deformylated δ-toxin to the formylated δ-toxin.

[10] = tested on: M. luteus ATCC 4698; assay: MIC determination in broth; assay type: cell-based, Micrococcus luteus; conditions: cation-adjusted MH broth, ~10^5 CFU/mL, 30°C, 48 h
Protocol: M. luteus ATCC 4698, S. aureus ATCC 29213, a panel of 7 MRSA (ATCC MP-2) strains, which includes ATCC BAA-41, BAA-42, BAA-44, BAA-1683, BAA-2094, BAA-2313, and 33592, and a series of additional bacterial isolates from human and veterinary cases were used in this study (Table S6). Bacterial strains were routinely grown in lysogeny broth (LB: 10 g/L tryptone, 5 g/L yeast extract, 10 g/L NaCl) at 30°C (M. luteus) or 37°C (Staphylococcus spp.) prior to use in specific experiments described below.
The MICs were measured for bioactive peptides identified from the initial screen. Cation-adjusted Mueller-Hinton (MH) broth was used as the growth medium for MIC determination experiments. Bacterial cultures were diluted to an OD of 5 × 10^−4 (∼10^5 CFU/mL) in 200 μL MH broth mixed with peptides in a 2-fold dilution series arrayed in 96-well plates. Plates were incubated without shaking at 30 or 37°C depending on the organism.

[11] = tested on: S. aureus; assay: MIC of STIP3-1 alanine variants in liquid broth; assay type: cell-based, Staphylococcus aureus; conditions: Table S4; maximum concentration tested 200 μg/mL; strain not given
Protocol: The MICs were measured for bioactive peptides identified from the initial screen. […] […] Plates were incubated without shaking at 30 or 37°C depending on the organism.

[12] = target: SspA protease (Staphylococcus aureus, UniProt P0C1U8); assay: SspA protease treatment with HPLC/MS analysis; assay type: in vitro ADME; conditions: peptide 45 μL at 10 mg/mL + SspA 5 μL at 2 mg/mL, 100 mM HEPES pH 7.8, 37°C, 5 h
SspA protease, sequence (P0C1U8 69-336): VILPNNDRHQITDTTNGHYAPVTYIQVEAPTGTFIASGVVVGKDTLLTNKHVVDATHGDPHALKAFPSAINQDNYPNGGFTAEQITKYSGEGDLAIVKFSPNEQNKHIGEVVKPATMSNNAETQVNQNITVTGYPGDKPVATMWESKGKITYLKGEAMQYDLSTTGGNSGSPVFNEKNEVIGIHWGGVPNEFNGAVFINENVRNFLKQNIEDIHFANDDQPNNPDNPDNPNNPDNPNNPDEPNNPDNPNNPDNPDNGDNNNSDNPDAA
Protocol: SspA protease was resuspended at 2 mg/mL in 100 mM HEPES (pH 7.8). Peptide samples (45 μL at 10 mg/mL) were mixed with SspA (5 μL at 2 mg/mL) and incubated at 37°C for a total of 5 h. The antimicrobial activities of the reaction mixtures were assayed by spotting 5 μL (∼45 μg) of each on either M. luteus or S. aureus test organisms as described above. Additional samples were flash frozen in liquid nitrogen and stored at −80°C prior to high-pressure liquid chromatography-mass spectrometry (HPLC/MS) analysis.
HPLC/MS analyses were conducted to assess the proteolytic cleavage of STIPs by the SspA protease and catalogue peptides in the reaction mixtures. An Agilent Infinity II 1260 HPLC outfitted with a Phenomenex Lune C5 column (4.6 by 150 mm, 5 μm) was used to separate the peptide fragments using a binary solvent system consisting of solvent A (water, 0.05% formic acid) and solvent B (acetonitrile, 0.05% formic acid) operating at 0.7 mL/min. A 5-μL volume (∼4.5 μg) of each sample was injected at 10% solvent B, followed by a two-step gradient elution from 10% to 50% solvent B in 30 min, then 50% to 100% B in 10 min. The HPLC was coupled to an Advion CMS(L) single quadrupole mass detector through an electrospray ionization source, and ions were detected between 100 and 2,000 m/z. Low temperature and fragmentation settings were used: capillary temperature 135°C, capillary voltage 120 V, source voltage offset 20 V, source gas temperature 135°C, and electrospray ionization (ESI) voltage 3,500 V.

[13] = tested on: HeLa (ATCC CCL-2) cells; assay: HeLa cytotoxicity, alamarBlue; assay type: cell-based, human; conditions: monolayers, 3.13 to 200 μg/mL, 24 h, alamarBlue fluorescence; estimated
Protocol: Cytotoxicity was measured using the 3D EpiDerm skin tissues and HeLa (ATCC CCL-2) cells using a fluorescent reporter of cell viability, alamarBlue (ThermoFisher Scientific). 3D EpiDerm skin tissues (MatTek EPI-200-AFAB) were transferred to a 12-well plate containing 600 μL of AFAB-assay medium supplemented with 10% vol/vol alamarBlue. […] HeLa cells were seeded in a 96-well plate at 2 × 10^4 cells/per well and incubated overnight at 37°C in a humidified 5% CO2 environment to prepare wells at ∼50% confluence for treatments after spent Dulbecco’s modified Eagle’s medium (DMEM) was removed and cells were washed with PBS. Assays were then performed using phenol red-free DMEM supplement with 9% vol/vol alamarBlue and peptide concentrations varying from 3.13 to 200 μg/mL. After a 24 h incubation period, alamarBlue fluorescence emission was measured at 590 nm upon excitation at 560 nm using Varioskan Lux plate reader (Thermo Scientific). Fluorescence intensities of treated cultures were normalized to measurement made for untreated control samples. Experimental data sets were fit to nonlinear dose-response curves to determine IC50 values using Origin 2019.

Substance | MIC, S. aureus ATCC 33592 (SCCmec III) ([1]; Table S5, STIP3 variants, highest conc. tested 100 μg/mL, 2-fold dilution series) [µg/mL] | MIC, S. aureus ATCC BAA 1683 (SCCmec IV) [2] [µg/mL] | MIC, S. aureus ATCC BAA 2094 (SCCmec V) [3] [µg/mL] | MIC, S. aureus ATCC BAA 2313 (SCCmec XI) [4] [µg/mL] | MIC, S. aureus ATCC BAA 41 (SCCmec II) [5] [µg/mL] | MIC, S. aureus ATCC BAA 42 (SCCmec VI) [6] [µg/mL] | MIC, S. aureus ATCC BAA 44 (SCCmec I) [7] [µg/mL] | MIC, S. aureus ATCC 29213 [8] [µg/mL] | Change of hemolytic activity [9] | MIC (μg/mL) for MRSA ATCC 33592 ([1]; Table 1 and text) [µg/mL] | MIC, M. luteus [10] [µg/mL] | MIC, S. aureus (alanine substituted STIP3-1, liquid broth) [11] [µg/mL] | Susceptibility to SspA cleavage [12] | IC50, HeLa cell survival [13] [µg/mL]
TVGGLVKWILATVKKFA-NH2 [STIP3-28, rationally designed STIP3-1 variant, C-terminal amide] | 6.25 | 12.5 | 6.25 | 12.5 | 12.5 | 12.5 | 12.5 | 25 | increase in hemolysis |  |  |  |  | 
TVGGLVKWILDTVKKFA [STIP3-1] |  |  |  |  |  |  |  |  |  | 100 | 12.5 | 100 | further proteolysis can occur | 200 ± 30
